Assay results taken from US5635379A, “D-2-alkyl-tryptophan and peptides containing same” (Deghenghi; Romano, priority 1990, dated 1997).
Square brackets hold non-standard residues; d marks the D form. Peptide text beside a SMILES is read from it. dTrp(2-Me) = Cc1[nH]c2ccccc2c1C[C@@H](N)C(=O)O

Tests used:
[1] = tested on: GH release; test: GH response in conscious, freely-moving rats after antiserum pretreatment and i.v. peptide; format: in vivo
Method: Sixty male rats were prepared with indwelling venous catheters under ether anesthesia three days before experimentation. On the day of experimentation, all animals were given an iv heparin injection (100 IU; 0630 h). At 0700 h, animals were treated with 0.5 ml of either normal serum (control-as), somatostatin antiserum (somatostatin-as; 0.25 ml+0.25 ml saline), growth hormone-releasing hormone antiserum (GHRH-as; 0.25 ml+0.25 ml saline), or both somatostatin antiserum and growth hormone-releasing hormone antiserum (0.25 ml somatostatin-as+0.25 ml GHRH-as). Blood sampling began […] after antiserum pretreatment, with blood samples collected every 20 minutes for three hours. After the 180 minute sample (1100 h), animals were treated iv with 25 μg/kg of either Hexarelin or GHRP-6. Blood samples were then collected at 5, 10, 15, 20 30, 40, and 60 minutes after peptide treatment. All samples were centrifuged immediately and the plasma frozen until assayed. The peak GH response to Hexarelin and GHRP-6 as well as the area under the response curves (AUCs) for the thirty minutes following peptide injection were calculated. Data were subjected to repeated measures analysis of variance and are expressed as mean ±SEM.

[2] = tested on: GH release; test: GH-releasing activity i.v. in male rats anesthetized with ketamine and xilazine; format: in vivo, Sprague Dawley rats
Method: Male Sprague Dawley rats (Charles River, Calco, Italy) of 2-3 months of age were used. Rats were housed at 22 +2° C., with lighting cycle of 14 h light: 10 h dark (lights on from 06.00 to 20.00 h), at least 10 days before starting the experiments. A standard dry diet and water were available ad libitum.
Between 09.00-10.00 h rats were anesthetized with ketamine (58 mg/kg, Inoketam, VIRBAC, Milano) and xilazine (12 mg/kg, Rompun, Bayer, Milano). Thirty minutes later, a blood sample ([…]) was withdrawn from the exposed jugular vein, peptides were injected intravenously or subcutaneously, and further blood samples were collected 10, 20 and 30 minutes later.
Medium and plasma GH was measured by radioimmunoassay using materials supplied by the NIADDK Bethesda, Md. Values were expressed in term of NIASSK-rat-GH-RP-2 standard (potency 2 IU/ml), as ng/ml of medium or plasma.
The minimum detectable value of rat was 1.0 ng/ml; intra-assay variability was 6%. To avoid inter-assay variation, samples from each experiment were assayed simultaneously.

[3] = i.v. 25 μg/kg peptide, pooled over antiserum pretreatments

Cc1[nH]c2ccccc2c1C[C@@H](NC(=O)[C@@H](N)Cc1cnc[nH]1)C(=O)N[C@@H](C)C(=O)N[C@@H](Cc1c[nH]c2ccccc12)C(=O)N[C@H](Cc1ccccc1)C(=O)N[C@@H](CCCCN)C(N)=O [Example 4, His-D-2-methyl-Trp-Ala-Trp-D-Phe-Lys-NH2] (H-H[dTrp(2-Me)]AW[dF]K-NH2)
Mean GH [1, 3]: 235 ± 21 ng/mL | Peak GH [1, 3]: 552 ± 59 ng/mL | GH AUC ([1]; i.v. 25 μg/kg peptide, thirty minutes following injection, pooled over antiserum pretreatments): 7366 ± 912 ng/ml/30 min | overall GH response compared with GHRP-6 ([1]; i.v. 25 μg/kg, pooled results): more effective in eliciting a higher mean GH response as compared to GHRP-6 | plasma GH ([2]; i.v. 150 μg/kg, 10 min): 412.7 ± 39.7 ng/mL | plasma GH ([2]; i.v. 150 μg/kg, 20 min): 132.2 ± 12.7 ng/mL | plasma GH ([2]; i.v. 150 μg/kg, 30 min): 44.0 ± 6.0 ng/mL | plasma GH ([2]; i.v. 150 μg/kg, time 0 min (before injection)): 15.0 ± 2.9 ng/mL | plasma GH ([2]; i.v. 300 μg/kg, 10 min): 438.5 ± 26.8 ng/mL | plasma GH ([2]; i.v. 300 μg/kg, 20 min): 213.8 ± 34.2 ng/mL | plasma GH ([2]; i.v. 300 μg/kg, 30 min): 48.1 ± 8.8 ng/mL | plasma GH ([2]; i.v. 300 μg/kg, time 0 min (before injection)): 13.5 ± 2.0 ng/mL | plasma GH ([2]; i.v. 600 μg/kg, 10 min): 478.3 ± 19.8 ng/mL | plasma GH ([2]; i.v. 600 μg/kg, 20 min): 164.2 ± 13.2 ng/mL | plasma GH ([2]; i.v. 600 μg/kg, 30 min): 54.5 ± 13.3 ng/mL | plasma GH ([2]; i.v. 600 μg/kg, time 0 min (before injection)): 18.4 ± 4.3 ng/mL | effect on plasma GH concentrations ([2]; i.v. 150, 300 and 600 μg/kg, 10 and 20 minutes after administration): significant increases
